Laboratory results reported in article PMC9529094, “Identification of natural cytochalasins as leads for neglected tropical diseases drug discovery” (PLoS ONE, 2022).
Read-outs that look alike come from different tables or passages of the source.

Assays:
[1] = tested on: intracellular T. cruzi Tulahuen LacZ amastigotes; experiment: microbe, parasite or virus in culture; format: cell-based, Trypanosoma cruzi; conditions: for IC50: Trypanosoma cruzi, intracellular amastigotes, Tulahuen LacZ, HFF-1 host cells, 120 h, read-out: T. cruzi IC50 (μM ± SD); for SI^1 (CC50 HFF-1/IC50 T. cruzi) / SI^3 (CC50 HepG2/IC50 T. cruzi): selectivity index
Procedure: The epimastigote forms of the T. cruzi Tulahuen strain, which expresses the E. coli β-galactosidase gene lacZ [11], were grown in liver infusion tryptone (LIT) supplemented with 10% FCS (Cultilab) and 1% pen/strep (Sigma–Aldrich) at 28°C. Metacyclogenesis from epimastigotes to trypomastigotes was induced by the incubation of the epimastigotes in Grace’s insect medium (Sigma-Aldrich, 28°C) every 5 days. After 5 days, the trypomastigote forms were used to infect the HFF-1 cells. The promastigote forms of L. infantum were maintained in Schneider’s insect medium (Sigma-Aldrich) supplemented with 10% FCS (Cultilab) and 1% pen/strep (Sigma-Aldrich) at 28°C and subcultured every 6 or 7 days.
In vitro assays against T. cruzi were performed as described previously. HFF-1 human fibroblasts were seeded at 4x10^3/well in 96-well tissue culture plates in DMEM (Cultilab) without phenol red and then incubated overnight (37°C, 5% CO2). Next, trypomastigotes were added at 4x10^4/well, and the plates were incubated (37°C, 5% CO2). After 24 h, 2-fold serial dilutions of the test compounds were added at concentrations ranging from 64 to 0.12 μM, and the plates were then incubated (37°C, 5% CO2). Each compound concentration was evaluated in duplicate. All the plates included BZ (64–0.12 μM) (Sigma-Aldrich) as a positive control and untreated wells (100% growth) as a negative control. After 120 h, chlorophenol red β-D-galactopyranoside (CPRG, Sigma-Aldrich) was added to each well. The absorbance was measured at 570 nm in an automated SpectraMax 384 microplate reader (Sunnyvale, CA, USA), and the data were analysed using GraphPad Prism version 8.0 (San Diego, CA, USA) for IC50 value calculation.
The analyses were performed using GraphPad Prism version 8.0 (GraphPad Software, San Diego, CA, USA). Both the IC50 and CC50 values were calculated by adjusting the sigmoid dose-response curves, and the selectivity index (SI) values were determined by CC50/IC50 [16]. Statistical analyses were performed using one-way ANOVA followed by Dunnett’s multiple comparison test.

[2] = tested on: L. infantum promastigotes; experiment: Leishmanicidal assay using L. infantum promastigotes (resazurin); format: cell-based, Leishmania infantum; conditions: 20–2.5 μM, 24 h, Fig 2C
Procedure: Promastigotes of L. infantum (1x10^6 parasites/well) were distributed in 96-well plates, and the test compounds (cytochalasins A-D) were added at concentrations of 20–2.5 μM. The plates were incubated under the same conditions as previously described for 24 h. The leishmanicidal activity was determined by adding 20 μL of resazurin (Sigma-Aldrich), and the plates were incubated for 4 h. The absorbance was measured at 536 and 588 nm in an automated SpectraMax Gemini microplate reader, and the data were analysed using GraphPad Prism version 8.0 for the CC50 value calculation. The percentage of nonviable parasites was determined and compared to the negative control wells.

[3] = in vitro; format: cell-based; conditions: human, 72 h, MTS
Procedure: THP-1 (human monocyte cell line) cells were cultivated in RPMI medium supplemented with 10% foetal calf serum (FCS) (Cultilab, Campinas, SP, BR) and 1% penicillin and streptomycin (pen/strep—Sigma-Aldrich) at 37°C under 5% CO2, and HFF-1 (human fibroblast) and HepG2 (hepatocytes) cells were cultivated in DMEM without phenol red (Cultilab) supplemented with 10% FBS (Sigma-Aldrich) and 1% pen/strep at 37°C under 5% CO2.
The cytotoxicity of the compounds against HFF-1 fibroblasts and HepG2 hepatocytes was evaluated using the MTS tetrazolium assay (Promega, Madison, WI, USA). HFF-1 fibroblasts were seeded at 4x10^3/well in 96-well culture plates in DMEM without phenol red and incubated overnight (37°C, 5% CO2). HepG2 hepatocytes were seeded at 7x10^3/well in 96-well culture plates in DMEM (Cultilab) with supplements (10% FCS, 1% pen/strep) and incubated overnight (37°C, 5% CO2). The compounds were added in 2-fold serial dilutions at the same concentrations described before, and the plates were incubated as described before. Each compound concentration was evaluated in duplicate. All the plates included doxorubicin (DOX) (Sigma-Aldrich) as a positive control (10–0.01 μM) and untreated wells as a negative control (100% growth). After 72 h, 15 μL of MTS (Promega) was added, and the plates were incubated for 4 h. The absorbance was measured at 490 nm in an automated SpectraMax 384 microplate reader (Sunnyvale, CA, USA), and the data were analysed using GraphPad Prism version 8.0 for CC50 value calculation. The percentage of nonviable cells was determined and compared to the negative control wells (100% growth).

[4] = tested on: L. infantum; experiment: Screening of natural product collection against L. infantum (cell infection assay); format: cell-based; conditions: Leishmania infantum; compound concentration of 50 μM
Procedure: A screening of a natural product collection was performed by using cell assays for infection with Trypanosoma cruzi and Leishmania infantum. The collection includes 320 compounds from the metabolic classes terpenes, alkaloids, peptides and amides that were isolated by plant species or endophytic fungi. For further evaluation in this study, cytochalasins A-D (CAS numbers: CytA: 14110-64-6, CytB: 14930-96-2, CytC: 22144-76-9, CytD: 22144-77-0) were obtained from Sigma-Aldrich (St. Louis, MO, USA). The purity of these compounds was ≥97%. The stock solution of the compounds was prepared in 100% DMSO (dimethyl sulfoxide—Sigma-Aldrich).

SMILES: C=C1[C@@H](C)[C@H]2[C@H](Cc3ccccc3)NC(=O)[C@]23OC(=O)/C=C/C(=O)CCC[C@@H](C)C/C=C/[C@H]3[C@@H]1O [Cytochalasin A]
- IC50 [1]: 3.02 ± 2.16 µM
- SI^1 (CC50 HFF-1/IC50 T. cruzi) [1]: 8.96
- SI^3 (CC50 HepG2/IC50 T. cruzi) [1]: 6.99
- toxicity to L. infantum promastigote parasites [2]: toxic
- CC50 ([3]; read-out: HFF-1 CC50 (μM ± SD)): 27.07 ± 0.17 µM
- CC50 ([3]; read-out: HepG2 CC50 (μM ± SD)): 21.1 ± 4.51 µM
- inhibition at 50 µM [4]: 100%

SMILES: C=C1[C@@H](C)[C@H]2[C@H](Cc3ccccc3)NC(=O)[C@]23OC(=O)/C=C/[C@H](O)CCC[C@@H](C)C/C=C/[C@H]3[C@@H]1O [Cytochalasin B]
- IC50 [1]: 16.9 ± 1.47 µM
- SI^1 (CC50 HFF-1/IC50 T. cruzi) [1]: 1.29
- SI^3 (CC50 HepG2/IC50 T. cruzi) [1]: 2.74
- CC50 ([3]; read-out: HFF-1 CC50 (μM ± SD)): 21.8 ± 3.57 µM
- CC50 ([3]; read-out: HepG2 CC50 (μM ± SD)): 46.3 ± 19.3 µM
- inhibition at 50 µM [4]: 57.7%

SMILES: CC(=O)OC1C=CC(C)(O)C(=O)C(C)CC=CC2C(O)C(C)=C(C)C3C(Cc4ccccc4)NC(=O)C123 (centres unmarked) [Cytochalasin C]
- IC50 [1]: 10.2 ± 1.13 µM
- SI^1 (CC50 HFF-1/IC50 T. cruzi) [1]: 7.45
- SI^3 (CC50 HepG2/IC50 T. cruzi) [1]: 2.19
- toxicity to L. infantum promastigote parasites [2]: toxic
- CC50 ([3]; read-out: HFF-1 CC50 (μM ± SD)): 76.3 ± 3.12 µM
- CC50 ([3]; read-out: HepG2 CC50 (μM ± SD)): 22.5 ± 6.47 µM
- inhibition at 50 µM [4]: 58.5%

SMILES: C=C1[C@@H](C)[C@H]2[C@H](Cc3ccccc3)NC(=O)[C@]23[C@H](OC(C)=O)/C=C/[C@@](C)(O)C(=O)[C@@H](C)C/C=C/[C@H]3[C@@H]1O [Cytochalasin D]
- IC50 [1]: 20.2 ± 3.27 µM
- SI^1 (CC50 HFF-1/IC50 T. cruzi) [1]: 4.78
- SI^3 (CC50 HepG2/IC50 T. cruzi) [1]: 6.11
- CC50 ([3]; read-out: HFF-1 CC50 (μM ± SD)): 96.5 ± 10 µM
- CC50 ([3]; read-out: HepG2 CC50 (μM ± SD)): 123 ± 20 µM
- inhibition at 50 µM [4]: 64.9%
